Results as given in PubChem BioAssay AID1918958 (Molecular Pharmacology Branch, DTP, NCI, 2023).

System: NCI-H196 complex spheroid viability
Test: Anticancer human tumor NCI-H196 cell line growth inhibition [LSD1];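 further: spheroids exposed to agents for 7 days before readout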;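 on viability, T/C: 100% = DMSO vehicle control viability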
Conditions: for IC50: curve of first compound; for viability, T/C: stronger effect = lower value
In short: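 Complex spheroids of tumor cells with HUVEC and human MSCs, exposed to iadademstat combined with other agents. Each agent tested in half-log steps from near clinical Cmax (else 10 microM top), DMSO ≤0.25%.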

[1] = second compound 0.1 µM, first compound 0.00316 µM
[2] = second compound 0.1 µM, first compound 0.01 µM
[3] = second compound 0.1 µM, first compound 0.0316 µM
[4] = second compound 0.1 µM, first compound 0.1 µM
[5] = second compound 0.1 µM, first compound 0.316 µM
[6] = second compound 0.1 µM, first compound 1 µM
[7] = second compound 0.316 µM, first compound 0.00316 µM
[8] = second compound 0.316 µM, first compound 0.01 µM
[9] = second compound 0.316 µM, first compound 0.0316 µM
[10] = second compound 0.316 µM, first compound 0.1 µM
[11] = second compound 0.316 µM, first compound 0.316 µM
[12] = second compound 0.316 µM, first compound 1 µM
[13] = second compound 1 µM, first compound 0.00316 µM
[14] = second compound 1 µM, first compound 0.01 µM
[15] = second compound 1 µM, first compound 0.0316 µM
[16] = second compound 1 µM, first compound 0.1 µM
[17] = second compound 1 µM, first compound 0.316 µM
[18] = second compound 1 µM, first compound 1 µM
[19] = second compound 3.16 µM, first compound 0.00316 µM
[20] = second compound 3.16 µM, first compound 0.01 µM
[21] = second compound 3.16 µM, first compound 0.0316 µM
[22] = second compound 3.16 µM, first compound 0.1 µM
[23] = second compound 3.16 µM, first compound 0.316 µM
[24] = second compound 3.16 µM, first compound 1 µM
[25] = second compound 10 µM, first compound 0.00316 µM
[26] = second compound 10 µM, first compound 0.01 µM
[27] = second compound 10 µM, first compound 0.0316 µM
[28] = second compound 10 µM, first compound 0.1 µM
[29] = second compound 10 µM, first compound 0.316 µM
[30] = second compound 10 µM, first compound 1 µM
[31] = second compound 0.1 µM, first compound 3.16 µM
[32] = second compound 0.1 µM, first compound 10 µM
[33] = second compound 0.316 µM, first compound 3.16 µM
[34] = second compound 0.316 µM, first compound 10 µM
[35] = second compound 1 µM, first compound 3.16 µM
[36] = second compound 1 µM, first compound 10 µM
[37] = second compound 3.16 µM, first compound 3.16 µM
[38] = second compound 3.16 µM, first compound 10 µM
[39] = second compound 10 µM, first compound 3.16 µM
[40] = second compound 10 µM, first compound 10 µM

Row | SMILES | IC50 (second compound 0.1 µM) [nM] | IC50 (second compound 0.316 µM) [nM] | IC50 (second compound 1 µM) [nM] | IC50 (second compound 3.16 µM) [nM] | IC50 (second compound 10 µM) [nM] | viability, T/C [3] [%] | viability, T/C [4] [%] | viability, T/C [5] [%] | viability, T/C [6] [%] | viability, T/C [9] [%] | viability, T/C [10] [%] | viability, T/C [11] [%] | viability, T/C [12] [%] | viability, T/C [15] [%] | viability, T/C [16] [%] | viability, T/C [17] [%] | viability, T/C [18] [%] | viability, T/C [21] [%] | viability, T/C [22] [%] | viability, T/C [23] [%] | also measured
1 | CC1COCCN1c1cc(-c2ccnn2C)c2ccnc(-c3ccn[nH]3)c2n1 (stereo not given) + NC1CCC(NC2CC2c2ccccc2)CC1 | 296 | 366 | 310 | 771 | 266 | 80 | 58.1 | 54.1 | 44.2 | 75.2 | 59.8 | 51.7 | 47.1 | 74.2 | 57.7 | 51.8 | 47.6 | 69.9 | 60.1 | 53.9 | viability, T/C [1]: 84.7%; viability, T/C [2]: 84.3%; viability, T/C [7]: 81%; viability, T/C [8]: 86.4%; viability, T/C [13]: 73.6%; viability, T/C [14]: 78.7%; viability, T/C [19]: 88%; viability, T/C [20]: 82.6%; viability, T/C [24]: 48.5%; viability, T/C [25]: 86.7%; viability, T/C [26]: 78.8%; viability, T/C [27]: 74.5%; viability, T/C [28]: 56.2%; viability, T/C [29]: 49%; viability, T/C [30]: 46.5%
2 | CC1COCCN1c1cc(C2(S(C)(=N)=O)CC2)nc(-c2ccnc3[nH]ccc23)n1 (stereo not given) + NC1CCC(NC2CC2c2ccccc2)CC1 | > 10000 | > 10000 | > 10000 | > 10000 | > 10000 | 95.7 | 100 | 99 | 87.5 | 101 | 99.5 | 110 | 89.5 | 101 | 96.4 | 95.5 | 85.8 | 97.4 | 100 | 93.7 | viability, T/C [31]: 89%; viability, T/C [32]: 67.4%; viability, T/C [33]: 88.3%; viability, T/C [34]: 70.8%; viability, T/C [35]: 79.5%; viability, T/C [36]: 72.2%; viability, T/C [24]: 85.5%; viability, T/C [37]: 79.5%; viability, T/C [38]: 70.2%; viability, T/C [27]: 96.9%; viability, T/C [28]: 108%; viability, T/C [29]: 100%; viability, T/C [30]: 98%; viability, T/C [39]: 77.3%; viability, T/C [40]: 68.2%
3 | COc1ccc([C@@H](O)c2cc(-c3ncnc4cc(N5CCOCC5)ccc34)c(F)cc2Cl)nn1 + NC1CCC(NC2CC2c2ccccc2)CC1 | > 10000 | > 10000 | > 10000 | > 10000 | > 10000 | 102 | 99.2 | 88.9 | 81.3 | 103 | 102 | 96.6 | 85.5 | 95.7 | 105 | 93.4 | 90.5 | 103 | 103 | 88.9 | viability, T/C [31]: 72.7%; viability, T/C [32]: 53.7%; viability, T/C [33]: 73.4%; viability, T/C [34]: 54.6%; viability, T/C [35]: 76%; viability, T/C [36]: 58%; viability, T/C [24]: 88.9%; viability, T/C [37]: 69.5%; viability, T/C [38]: 54%; viability, T/C [27]: 102%; viability, T/C [28]: 104%; viability, T/C [29]: 89.8%; viability, T/C [30]: 84.2%; viability, T/C [39]: 73.3%; viability, T/C [40]: 57%
4 | O=C(C=Cn1cnc(-c2cc(C(F)(F)F)cc(C(F)(F)F)c2)n1)NNc1cnccn1 + NC1CCC(NC2CC2c2ccccc2)CC1 | < 3.16 | < 3.16 | < 3.16 | < 3.16 | < 3.16 | 22.3 | 15.1 | 14.4 | 9.29 | 19.7 | 14.1 | 14.5 | 10.1 | 22.3 | 17.1 | 15.7 | 10.4 | 21.1 | 17.1 | 13.9 | viability, T/C [1]: 32.9%; viability, T/C [2]: 27.2%; viability, T/C [7]: 31.6%; viability, T/C [8]: 25.9%; viability, T/C [13]: 38%; viability, T/C [14]: 25.1%; viability, T/C [19]: 30.6%; viability, T/C [20]: 29.2%; viability, T/C [24]: 12.9%; viability, T/C [25]: 38.2%; viability, T/C [26]: 25.6%; viability, T/C [27]: 16%; viability, T/C [28]: 19.1%; viability, T/C [29]: 14.5%; viability, T/C [30]: 11.9%
